Data reported in US8420823B2, “Long-chain fatty acyl elongase inhibitor comprising arylsulfonyl derivative as active ingredient” (MSD K.K., priority 2008, dated 2013).
pIC50: −log10 of the molar value.

Biological target: T1, human LCE (Homo sapiens, UniProt Q9H5J4)
T1 sequence (Q9H5J4 1-265): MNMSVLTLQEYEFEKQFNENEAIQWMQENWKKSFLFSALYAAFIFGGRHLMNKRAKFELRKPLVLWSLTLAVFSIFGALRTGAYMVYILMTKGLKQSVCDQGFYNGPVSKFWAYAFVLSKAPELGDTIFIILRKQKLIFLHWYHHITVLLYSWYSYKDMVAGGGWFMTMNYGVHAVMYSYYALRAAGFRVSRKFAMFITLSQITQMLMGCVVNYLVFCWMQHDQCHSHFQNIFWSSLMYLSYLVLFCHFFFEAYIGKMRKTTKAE
Test: LCE enzyme activity-inhibitory test
Type: biochemical
Conditions: [14C]-malonyl CoA / palmitoyl CoA substrate, 37° C., 90 minutes
Summary of the method: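 Human LCE (100 μg/mL in enzyme solution) was incubated 90 min at 37 °C in 100 mM potassium phosphate pH 6.5 with palmitoyl CoA, malonyl CoA, [14C]-malonyl CoA, rotenone and fatty acid-free BSA. Acid-stopped, hydrolyzed products were captured on GF/C filters and counted by scintillation. Inhibition was calculated against DMSO control.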

Row | Structure (SMILES) | pIC50
1 | CC(C)(O)c1ccc(NC(=O)c2cccc(S(=O)(=O)N3CCCCC3)c2)cc1 [Example 94, N-[4-(1-hydroxy-1-methylethyl)phenyl]-3-(piperidin-1-ylsulfonyl)benzamide] | 5.29
2 | COc1ccc(NC(=O)c2cccc(S(=O)(=O)N3CCCCC3)c2)c(OC)n1 [Example 96, N-(2,6-dimethoxypyridin-3-yl)-3-(piperidin-1-ylsulfonyl)benzamide] | 6.49
3 | COc1ncccc1NC(=O)c1cccc(S(=O)(=O)N2CCCCC2)c1 [Example 97, N-(2-methoxypyridin-3-yl)-3-(piperidin-1-ylsulfonyl)benzamide] | 5.60
4 | O=C(Nc1ncccc1O)c1cccc(S(=O)(=O)N2CCCCC2)c1 [Example 98, N-(3-hydroxypyridin-2-yl)-3-(piperidin-1-ylsulfonyl)benzamide] | 6.59
5 | COc1cccnc1NC(=O)c1cccc(S(=O)(=O)N2CCCCC2)c1 [Example 99, N-(3-methoxypyridin-2-yl)-3-(piperidin-1-ylsulfonyl)benzamide] | 7.44
6 | CC(C)Oc1ccc(NC(=O)c2cccc(S(=O)(=O)N3CCCCC3)c2)cn1 [Example 100, N-(6-isopropoxypyridin-3-yl)-3-(piperidin-1-ylsulfonyl)benzamide] | 7.41
7 | O=C(Nc1ccc(Oc2ccccc2)nc1)c1cccc(S(=O)(=O)N2CCCCC2)c1 [Example 101, N-(6-phenoxypyridin-3-yl)-3-(piperidin-1-ylsulfonyl)benzamide] | 6.04
8 | COc1ccc(NC(=O)c2cccc(S(=O)(=O)N3CCCCC3)c2)cn1 [Example 102, N-(6-methoxypyridin-3-yl)-3-(piperidin-1-ylsulfonyl)benzamide] | 5.47
9 | COc1cccnc1NC(=O)c1cccc(S(=O)(=O)N2CCCC2)c1 [Example 104, N-(3-methoxypyridin-2-yl)-3-(pyrrolidin-1-ylsulfonyl)benzamide] | 6.80
10 | O=C(Nc1cc(C2CC2)n[nH]1)c1cccc(S(=O)(=O)N2CCCCC2)c1 [Example 105, N-(3-cyclopropyl-1H-pyrazol-5-yl)-3-(piperidin-1-ylsulfonyl)benzamide] | 7.08
11 | COc1cc(Br)cnc1NC(=O)c1cccc(S(=O)(=O)N2CCCCC2)c1 [Example 106, N-(5-bromo-3-methoxypyridin-2-yl)-3-(piperidin-1-ylsulfonyl)benzamide] | 5.74
12 | C=Cc1cnc(NC(=O)c2cccc(S(=O)(=O)N3CCCCC3)c2)c(OC)c1 [Example 107, N-(3-methoxy-5-vinylpyridin-2-yl)-3-(piperidin-1-ylsulfonyl)benzamide] | 6.28
13 | CCc1cnc(NC(=O)c2cccc(S(=O)(=O)N3CCCCC3)c2)c(OC)c1 [Example 108, N-(5-ethyl-3-methoxypyridin-2-yl)-3-(piperidin-1-ylsulfonyl)benzamide] | 7.00
14 | COc1cc(-c2ccccc2)cnc1NC(=O)c1cccc(S(=O)(=O)N2CCCC2)c1 [Example 109, N-(3-methoxy-5-phenylpyridin-2-yl)-3-(pyrrolidin-1-ylsulfonyl)benzamide] | 5.49
15 | COc1cc(Oc2ccccc2)cnc1NC(=O)c1cccc(S(=O)(=O)N2CCCC2)c1 [Example 110, N-(3-methoxy-5-phenoxypyridin-2-yl)-3-(pyrrolidin-1-ylsulfonyl)benzamide] | 6.68
16 | COc1cc(Sc2ccccc2)cnc1NC(=O)c1cccc(S(=O)(=O)N2CCCC2)c1 [Example 111, N-[3-methoxy-5-(phenylthio)pyridin-2-yl]-3-(pyrrolidin-1-ylsulfonyl)benzamide] | 6.60
17 | COc1cc(S(=O)(=O)c2ccccc2)cnc1NC(=O)c1cccc(S(=O)(=O)N2CCCC2)c1 [Example 112, N-[3-methoxy-5-(phenylsulfonyl)pyridin-2-yl]-3-(pyrrolidin-1-ylsulfonyl)benzamide] | 5.02
18 | CCOc1cccnc1NC(=O)c1cccc(S(=O)(=O)N2CCCC2)c1 [Example 113, N-(3-ethoxypyridin-2-yl)-3-(pyrrolidin-1-ylsulfonyl)benzamide] | 6.40
19 | N#Cc1nc[nH]c1NC(=O)c1cccc(S(=O)(=O)N2CCCCC2)c1 [Example 114, N-(4-cyano-1H-imidazol-5-yl)-3-(piperidin-1-ylsulfonyl)benzamide] | 5.55
20 | O=C(Nc1cc(C2CC2)n[nH]1)c1cccc(S(=O)(=O)N2CCCC2)c1 [Example 115, N-(3-cyclopropyl-1H-pyrazol-5-yl)-3-(pyrrolidin-1-ylsulfonyl)benzamide] | 6.51
21 | CC(C)Oc1cc(NC(=O)c2cccc(S(=O)(=O)c3ccccn3)c2)[nH]n1 [Example 116, N-(3-isopropoxy-1H-pyrazol-5-yl)-3-(pyridin-2-ylsulfonyl)benzamide] | 7.92
22 | CCOc1cc(NC(=O)c2cccc(S(=O)(=O)c3ccccn3)c2)[nH]n1 [Example 117, N-(3-ethoxy-1H-pyrazol-5-yl)-3-(pyridin-2-ylsulfonyl)benzamide] | 6.55

Row | Structure (SMILES) | pIC50
23 | CCCOc1cc(NC(=O)c2cccc(S(=O)(=O)c3ccccn3)c2)[nH]n1 [Example 118, N-(3-propoxy-1H-pyrazol-5-yl)-3-(pyridin-2-ylsulfonyl)benzamide] | 7.62
24 | CCCCOc1cc(NC(=O)c2cccc(S(=O)(=O)c3ccccn3)c2)[nH]n1 [Example 119, N-(3-butoxy-1H-pyrazol-5-yl)-3-(pyridin-2-ylsulfonyl)benzamide] | 8.22
25 | COc1cccnc1NC(=O)c1cccc(S(=O)(=O)c2ccccn2)c1 [Example 120, N-(3-methoxypyridin-2-yl)-3-(pyridin-2-ylsulfonyl)benzamide] | 6.41
26 | CC(C)c1ccc(NC(=O)c2cccc(S(=O)(=O)c3ccccn3)c2)cc1 [Example 121, N-(4-isopropylphenyl)-3-(pyridin-2-ylsulfonyl)benzamide] | 6.74
27 | CC(C)Oc1ccc(NC(=O)c2cccc(S(=O)(=O)c3ccccn3)c2)nc1 [Example 122, N-(5-isopropoxypyridin-2-yl)-3-(pyridin-2-ylsulfonyl)benzamide] | 6.59
28 | COCC(C)Oc1ccc(NC(=O)c2cccc(S(=O)(=O)c3ccccn3)c2)c(F)c1 (stereo not shown) [Example 123, N-[2-fluoro-4-(2-methoxy-1-methylethoxy)phenyl]-3-(pyridin-2-ylsulfonyl)benzamide] | 5.57
29 | O=C(Nc1ccc(OC(CF)CF)cc1F)c1cccc(S(=O)(=O)c2ccccn2)c1 [Example 124, N-{2-fluoro-4-[2-fluoro-1-(fluoromethyl)ethoxy]phenyl}-3-(pyridin-2-ylsulfonyl)benzamide] | 6.46
30 | O=C(Nc1ccc(OC2CCCC2)cc1F)c1cccc(S(=O)(=O)c2ccccn2)c1 [Example 125, N-[4-(cyclopentyloxy)-2-fluorophenyl]-3-(pyridin-2-ylsulfonyl)benzamide] | 6.62
31 | CC(C)Oc1ccc(NC(=O)c2cccc(S(=O)(=O)c3ccccn3)c2)c(F)c1 [Example 126, N-(2-fluoro-4-isopropoxyphenyl)-3-(pyridin-2-ylsulfonyl)benzamide] | 6.82
32 | CC(C)COc1ccc(NC(=O)c2cccc(S(=O)(=O)c3ccccn3)c2)c(F)c1 [Example 127, N-(2-fluoro-4-isobutoxyphenyl)-3-(pyridin-2-ylsulfonyl)benzamide] | 6.00
33 | CCC(C)Oc1ccc(NC(=O)c2cccc(S(=O)(=O)c3ccccn3)c2)c(F)c1 (stereo not shown) [Example 128, N-(4-sec-butoxy-2-fluorophenyl)-3-(pyridin-2-ylsulfonyl)benzamide] | 6.72
34 | CC(C)Oc1ccc(NC(=O)c2cccc(S(=O)(=O)c3ccccn3)c2)nc1Br [Example 129, N-(6-bromo-5-isopropoxypyridin-2-yl)-3-(pyridin-2-ylsulfonyl)benzamide] | 5.35
35 | CC(C)Oc1ccc(NC(=O)c2cccc(S(=O)(=O)c3cccnc3)c2)cc1 [Example 130, N-(4-isopropoxyphenyl)-3-(pyridin-3-ylsulfonyl)benzamide] | 5.82
36 | Cc1ccnc(S(=O)(=O)c2cccc(C(=O)Nc3ccc(OC(C)C)cc3)c2)c1 [Example 131, N-(4-isopropoxyphenyl)-3-[(4-methylpyridin-2-yl)sulfonyl]benzamide] | 5.80
37 | Cc1cccc(S(=O)(=O)c2cccc(C(=O)Nc3ccc(OC(C)C)cc3)c2)n1 [Example 132, N-(4-isopropoxyphenyl)-3-[(6-methylpyridin-2-yl)sulfonyl]benzamide] | 6.17
38 | COc1ccc(NC(=O)c2cccc(S(=O)(=O)c3ccccc3)c2)cc1 [Example 133, N-(4-methoxyphenyl)-3-(phenylsulfonyl)benzamide] | 5.43
39 | COc1ccccc1NC(=O)c1cccc(S(=O)(=O)c2ccccc2)c1 [Example 134, N-(2-methoxyphenyl)-3-(phenylsulfonyl)benzamide] | 6.38
40 | COc1cccnc1NC(=O)c1cccc(S(=O)(=O)c2ccccc2)c1 [Example 135, N-(3-methoxypyridin-2-yl)-3-(phenylsulfonyl)benzamide] | 6.29
41 | CC(C)c1ccc(NC(=O)c2cccc(S(=O)(=O)c3ccccc3)c2)cc1 [Example 136, N-(4-isopropylphenyl)-3-(phenylsulfonyl)benzamide] | 6.80
42 | CC(C)c1ccc(NC(=O)c2cccc(S(=O)(=O)c3ccc(F)cc3)c2)cc1 [Example 137, 3-[(4-fluorophenyl)sulfonyl]-N-(4-isopropylphenyl)benzamide] | 6.16
43 | CC(C)Oc1ccc(NC(=O)c2cccc(S(=O)(=O)c3ncccn3)c2)nc1 [Example 138, N-(5-isopropoxypyridin-2-yl)-3-(pyrimidin-2-ylsulfonyl)benzamide] | 6.62
